The text below walks through data of US20090239846A1, “Novel Compounds” (Glaxo Group Limited, priority 2005, published 2009).

The subject of test [1] is IL-8 production by human neutrophils. The experiment in a line: TNF-stimulated IL-8 production from human neutrophils. The following applies: Neutrophil. Format: cell-based.
In test [2] the target is T1, Recombinant human p38α (Homo sapiens, UniProt Q16539).
T1 construct: GST; made in house
Kind of test: Fluorescence anisotropy kinase binding assay (standard or low volume). The following applies: for active in the assay (pIC50, p38α binding): 12 nM p38α, 5 nM fluorescent ligand. The text has this:
The concentration of kinase enzyme should preferably be >2×Kf. The concentration of fluorescent ligand required will depend on the instrumentation used, and the fluorescent and physicochemical properties. The concentration used must be lower than the concentration of kinase enzyme, and preferably less than half the kinase enzyme concentration.
The fluorescent ligand is the following compound:
[drawing 329] • which is derived from 5-[2-(4-aminomethylphenyl)-5-pyridin-4-yl-1H-imidazol-4-yl]-2-chlorophenol and rhodamine green. Recombinant human p38α was expressed as a GST-tagged protein. To activate this protein, 3.5 μM unactivated p38α was incubated in 50 mM Tris-HCl pH 7.5, 0.1 mM EGTA, 0.1% 2-mercaptoethanol, 0.1 mM sodium vanadate, 10 mM MgAc, 0.1 mM ATP with 200 nM MBP-MKK6 DD at 30 degrees for 30 mins. Following activation p38α was re-purified and the activity assessed using a standard filter-binding assay. Protocol: All components are dissolved in buffer of composition 62.5 mM HEPES, pH 7.5, 1.25 mM CHAPS, 1 mM DTT, 12.5 mM MgCl2 with final concentrations of 12 nM p38α and 5 nM fluorescent ligand. 30 μl of this reaction mixture is added to wells containing 1 μl of various concentrations of test compound (0.28 nM-16.6 μM final) or DMSO vehicle (3% final) in NUNC 384 well black microtitre plate and equilibrated for 30-60 mins at room temperature. Fluorescence anisotropy is read in Molecular Devices Acquest (excitation 485 nm/emission 535 nm). Definitions: Ki=dissociation constant for inhibitor binding • Kf=dissociation constant for fluorescent ligand binding
The concentration of kinase enzyme should preferably be 2×Kf. The concentration of fluorescent ligand required will depend on the instrumentation used, and the fluorescent and physicochemical properties. The concentration used must be lower than the concentration of kinase enzyme, and preferably less than half the kinase enzyme concentration. The fluorescent ligand is the following compound:
which is derived from 5-[2-(4-aminomethylphenyl)-5-pyridin-4-yl-1H-imidazol-4-yl]-2-chlorophenol and rhodamine green. Recombinant human p38α was expressed as a GST-tagged protein. To activate this protein, 3.5 μM unactivated p38α was incubated in 50 mM Tris-HCl pH 7.5, 0.1 mM EGTA, 0.1% 2-mercaptoethanol, 0.1 mM sodium vanadate, 10 mM MgAc, 0.1 mM ATP with 200 nM MBP-MKK6 DD at 30 degrees for 30 mins. Following activation p38α was re-purified and the activity assessed using a standard filter-binding assay. Protocol: All components are dissolved in buffer of composition 62.5 mM HEPES, pH 7.5, 1.25 mM CHAPS, 1 mM DTT, 12.5 mM MgCl2 with final concentrations of 12 nM p38α and 5 nM fluorescent ligand. […] of this reaction mixture is added to wells containing 0.1 μl of various concentrations of test compound (0.02 nM-25 μM final) or DMSO vehicle (1.7% final) in Greiner low volume 384 well black microtitre plate and equilibrated for 30-60 mins at room temperature. Fluorescence anisotropy is read in Molecular Devices Acquest (excitation 485 nm/emission 535 nm). Definitions: Ki dissociation constant for inhibitor binding • Kf=dissociation constant for fluorescent ligand binding It is noted that there are two assay formats shown above for the Fluorescence anisotropy kinase binding assay. The only difference between these two assays is the volume used and the plate type. […] The results described herein may have been performed in either assay format and are not differentiated as to which.
(In general: Polarisation of emitted light reports the rotation of a fluorescent probe.)

Setting [3] is: bound, not more than 50% inhibition at 100 nM, read-out: IC50.
[4] abbreviates: ends given as 'less than' / 'greater than', read-out: IC50, broad range of data upon multiple runs.

Counter-ions that a name gives are not always drawn. Like-named read-outs stand apart in the source and are kept apart here.

T1 sequence (Q16539 whole entry): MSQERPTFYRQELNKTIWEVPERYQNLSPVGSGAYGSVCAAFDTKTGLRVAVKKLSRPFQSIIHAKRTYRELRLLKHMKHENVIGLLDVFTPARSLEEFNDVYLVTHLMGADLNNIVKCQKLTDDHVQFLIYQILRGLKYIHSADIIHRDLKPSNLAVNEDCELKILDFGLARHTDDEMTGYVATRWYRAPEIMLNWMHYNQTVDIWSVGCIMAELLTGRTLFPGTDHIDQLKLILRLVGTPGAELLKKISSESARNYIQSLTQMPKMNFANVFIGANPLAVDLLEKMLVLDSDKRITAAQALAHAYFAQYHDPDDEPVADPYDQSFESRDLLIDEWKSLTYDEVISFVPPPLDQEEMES

On to `Cc1ccc(C(=O)NCC2CC2)cc1-c1nc(N(C)CCN)nc2c1CNC(=O)N2c1c(F)cccc1F` [4(c), 3-[2-[(2-Aminoethyl)(methyl)amino]-8-(2,6-difluorophenyl)-7-oxo-5,6,7,8-tetrahydropyrimido[4,5-d]pyrimidin-4-yl]-N-(cyclopropylmethyl)-4-methylbenzamide], for which the IC50 in test [1] (setting [3]) is > 100 nM. The “active in the assay (pIC50, p38α binding)” value (from here on “active in the assay”) in test [2] is given as “active”. The corresponding values for `Cc1ccc(C(=O)NCC2CC2)cc1-c1nc(NC2CCNCC2)nc2c1CNC(=O)N2c1c(F)cccc1F` [6(b), N-(Cyclopropylmethyl)-3-[8-(2,6-difluorophenyl)-7-oxo-2-(4-piperidinylamino)-5,6,7,8-tetrahydropyrimido[4,5-d]pyrimidin-4-yl]-4-methylbenzamide] are > 100 nM and “active”.

Regarding `CSc1nc(-c2cc(C(=O)NCc3ccccc3)ccc2C)c2c(n1)N(c1c(F)cccc1F)C(=O)NC2` [15(a), 3-[8-(2,6-Difluorophenyl)-2-(methylthio)-7-oxo-5,6,7,8-tetrahydropyrimido[4,5-d]pyrimidin-4-yl]-4-methyl-N-(phenylmethyl)benzamide], the IC50 in test [1] (setting [4]) fell in the range of 40 to 100 nM. For the same compound, the “active in the assay” value in test [2] is listed as “active”. With `Cc1ccc(C(=O)NCc2ccccc2)cc1-c1nc(S(C)(=O)=O)nc2c1CNC(=O)N2c1c(F)cccc1F` [15(b), 3-[8-(2,6-Difluorophenyl)-2-(methylsulfonyl)-7-oxo-5,6,7,8-tetrahydropyrimido[4,5-d]pyrimidin-4-yl]-4-methyl-N-(phenylmethyl)benzamide], the IC50 in test [1] (setting [3]) is > 100 nM. Also, in test [2], the “active in the assay” value is reported as “active”. For `Cc1ccc(C(=O)NCc2ccccc2)cc1-c1nc(NCCN(C)C(=O)OC(C)(C)C)nc2c1CNC(=O)N2c1c(F)cccc1F` [19(a), 1,1-Dimethylethyl (2-{[8-(2,6-difluorophenyl)-4-(2-methyl-5-{[(phenylmethyl)amino]carbonyl}phenyl)-7-oxo-5,6,7,8-tetrahydropyrimido[4,5-d]pyrimidin-2-yl]amino}ethyl)methylcarbamate], the IC50 in test [1] (setting [4]) is 40 to 100 nM; in test [2] (bound, read-out: apparent pIC50 (converted)), > 15800 nM. Regarding `Cc1ccc(C(=O)Nc2ccc(C)c(-c3nc(S(C)(=O)=O)nc4c3CNC(=O)N4c3c(F)cccc3F)c2)cc1F` [23(d), N-[3-[8-(2,6-difluorophenyl)-2-(methylsulfonyl)-7-oxo-5,6,7,8-tetrahydropyrimido[4,5-d]pyrimidin-4-yl]-4-methylphenyl]-3-fluoro-4-methylbenzamide], the IC50 in test [1] (setting [3]) is > 100 nM. In test [2], the “active in the assay” value is “active”.

In the case of `CN(C)CCNc1nc(-c2ccc(C(=O)Nc3nccs3)cc2)c2c(n1)N(c1c(F)cccc1F)C(=O)NC2` [96(b), 4-(8-(2,6-difluorophenyl)-2-{[2-(dimethylamino)ethyl]amino}-7-oxo-5,6,7,8-tetrahydropyrimido[4,5-d]pyrimidin-4-yl)-N-1,3-thiazol-2-ylbenzamide], the IC50 in test [1] (setting [3]) is > 100 nM. Also, the “active in the assay” value in test [2] is on record as “active”. `CCN(CC)C(=O)c1ccc(C)c(-c2nc(SC)nc3c2CNC(=O)N3c2c(F)cccc2F)c1` [156(a)]: in test [1] (setting [3]), the IC50 was > 100 nM. The “active in the assay” value in test [2] was “active”. The corresponding values for `CCN(CC)C(=O)c1ccc(C)c(-c2nc(S(C)(=O)=O)nc3c2CNC(=O)N3c2c(F)cccc2F)c1` [156(b), 3-[8-(2,6-difluorophenyl)-2-(methylsulfonyl)-7-oxo-5,6,7,8-tetrahydropyrimido[4,5-d]pyrimidin-4-yl]-N,N-diethyl-4-methylbenzamide] are > 100 nM and “active”. The corresponding values for `CNCCNc1nc(-c2cc(C(=O)NCC3CC3)ccc2C)c2c(n1)N(c1c(F)cccc1F)C(=O)NC2` [Example 5, N-(Cyclopropylmethyl)-3-(8-(2,6-difluorophenyl)-2-{[2-(methylamino)ethyl]amino}-7-oxo-5,6,7,8-tetrahydropyrimido[4,5-d]pyrimidin-4-yl)-4-methylbenzamide] are > 100 nM and “active”. As to `CN(C)CCNc1nc(-c2cccc(C(=O)N(C)C)c2)c2c(n1)N(c1c(F)cccc1F)C(=O)NC2` [Example 90, 3-(8-(2,6-difluorophenyl)-2-{[2-(dimethylamino)ethyl]amino}-7-oxo-5,6,7,8-tetrahydropyrimido[4,5-d]pyrimidin-4-yl)-N,N-dimethylbenzamide], in test [1] (setting [3]), the IC50 was > 100 nM.

Take `CNC(=O)c1ccc(-c2nc(NCCN(C)C)nc3c2CNC(=O)N3c2c(F)cccc2F)c(C)c1` [Example 109, 4-(8-(2,6-difluorophenyl)-2-{[2-(dimethylamino)ethyl]amino}-7-oxo-5,6,7,8-tetrahydropyrimido[4,5-d]pyrimidin-4-yl)-N,3-dimethylbenzamide trifluoroacetate]: the IC50 in test [1] (setting [3]) was > 100 nM. As to `Cc1c(F)cc(C(=O)N(C)C)cc1-c1nc(NCCN(C)C)nc2c1CNC(=O)N2c1c(F)cccc1F` [Example 113, 3-(8-(2,6-difluorophenyl)-2-{[2-(dimethylamino)ethyl]amino}-7-oxo-5,6,7,8-tetrahydropyrimido[4,5-d]pyrimidin-4-yl)-5-fluoro-N,N,4-trimethylbenzamide], the IC50 in test [1] (setting [3]) was > 100 nM.

With `Cc1c(F)cc(C(=O)Nc2ccc(F)cc2)cc1-c1nc(NCCN(C)C)nc2c1CNC(=O)N2c1c(F)cccc1F` [Example 115, 3-(8-(2,6-difluorophenyl)-2-{[2-(dimethylamino)ethyl]amino}-7-oxo-5,6,7,8-tetrahydropyrimido[4,5-d]pyrimidin-4-yl)-5-fluoro-N-(4-fluorophenyl)-4-methylbenzamide], the IC50 in test [1] (setting [4]) lay in the range of 1 to 100 nM. In the case of `Cc1ccc(C(=O)NC(C)C)cc1-c1nc(N(C)CCCN(C)CCCN(C)C)nc2c1CNC(=O)N2c1c(F)cccc1F` [Example 116, 3-{8-(2,6-difluorophenyl)-2-[{3-[[3-(dimethylamino)propyl]-(methyl)amino]propyl}(methyl)amino]-7-oxo-5,6,7,8-tetrahydropyrimido[4,5-d]pyrimidin-4-yl}-4-methyl-N-(1-methylethyl)benzamide], the IC50 in test [1] (setting [3]) is > 100 nM.

Take `Cc1ccc(C(=O)NCC(C)(C)C)cc1-c1nc(NCCN(C)C)nc2c1CNC(=O)N2c1c(F)cccc1F` [Example 125, 3-(8-(2,6-difluorophenyl)-2-{[2-(dimethylamino)ethyl]amino}-7-oxo-5,6,7,8-tetrahydropyrimido[4,5-d]pyrimidin-4-yl)-N-(2,2-dimethylpropyl)-4-methylbenzamide]: in test [1] (setting [3]), the IC50 is > 100 nM. On the same count and under the same terms, with `CCc1ccc(C(N)=O)cc1-c1nc(NCCN(C)C)nc2c1CNC(=O)N2c1c(F)cccc1F` [Example 146, 3-(8-(2,6-difluorophenyl)-2-{[2-(dimethylamino)ethyl]amino}-7-oxo-5,6,7,8-tetrahydropyrimido[4,5-d]pyrimidin-4-yl)-4-ethylbenzamide] the figure was > 100 nM; with `Cc1ccc(C(=O)NC(C)C)cc1-c1nc(NCCN2CCN(Cc3ccccc3)CC2)nc2c1CNC(=O)N2c1c(F)cccc1F` [Example 197, 3-[8-(2,6-difluorophenyl)-7-oxo-2-({2-[4-(phenylmethyl)-1-piperazinyl]ethyl}amino)-5,6,7,8-tetrahydropyrimido[4,5-d]pyrimidin-4-yl]-4-methyl-N-(1-methylethyl)benzamide trifluoroacetate], > 100 nM; with `CCCNC(=O)c1ccc(C)c(-c2nc(NCCC(=O)O)nc3c2CNC(=O)N3c2c(F)cccc2F)c1` [Example 229, N-(8-(2,6-difluorophenyl)-4-{2-methyl-5-[(propylamino)carbonyl]phenyl}-7-oxo-5,6,7,8-tetrahydropyrimido[4,5-d]pyrimidin-2-yl)-β-alanine], > 100 nM.
